We go through 10 molecules from ChEMBL document CHEMBL1123008, “Synthesis and antinociceptive activity of 4-(cyclopropylmethyl)-3,4,5,6-tetrahydro-2H-1,5-methano-1, 4-benzodiazocin-9-amine and congeners” (1985).

Assay type in all cases: functional
The test system of assay [1] is Rattus norvegicus. Briefly: In vivo narcotic antagonist activity by rat phenazocine antagonism test through subcutaneous administration.
Assay [2] relates to Rattus norvegicus. The assay can be described thus: In vivo narcotic antagonist activity in rat after subcutaneous administration at 60 mg/kg & lethal at 120 mg/kg.
Assay [3] relates to Mus musculus. Briefly: Maximum analgesic agonist activity obtained by mouse acetylcholine writhing test through subcutaneous administration at 75 mg/kg. Conditions: sc.
Assay [4] concerns Rattus norvegicus. The assay can be described thus: In vivo narcotic antagonist activity in rat after subcutaneous administration at 80 mg/kg. Conditions: sc.
Assay [5] concerns Mus musculus. The assay can be described thus: Analgesic agonist activity by mouse acetylcholine writhing test through subcutaneous administration. The conditions noted are these: sc.
Assay [6] has as its system Rattus norvegicus. The assay can be described thus: In vivo narcotic antagonist activity by AD50 vs. morphine through oral administration.
Assay [7] deals with Rattus norvegicus. The assay can be described thus: In vivo narcotic antagonist activity by rat phenylquinone test through subcutaneous administration. The conditions noted are these: sc.
Assay [8] has as its system Rattus norvegicus. The assay can be described thus: In vivo narcotic antagonist activity in rat after oral administration of the compound.
The subject of assay [9] is Rattus norvegicus. The assay can be described thus: In vivo narcotic antagonist activity by AD50 vs. morphine through subcutaneous administration.
Assay [10] has as its system Rattus norvegicus. Briefly: In vivo narcotic antagonist activity by rat phenylquinone test through oral administration.
The subject of assay [11] is Rattus norvegicus. The assay can be described thus: Analgesic agonist activity by rat tail-flick test through oral administration; Inactive at 200 mg/kg.
Assay [12] deals with Rattus norvegicus. The assay can be described thus: In vivo narcotic antagonist activity by AD50 vs. meperidine through oral administration.
In assay [13] the test system is Rattus norvegicus. Briefly: Analgesic agonist activity by rat tail-flick test through subcutaneous administration; Inactive at 120 mg/kg. Conditions: sc.
Assay [14] has as its system Rattus norvegicus. Briefly: In vivo narcotic antagonist activity by AD50 vs. meperidine through subcutaneous administration.
For assay [15], the system named is Rattus norvegicus. Briefly: In vivo narcotic antagonist activity in rat after subcutaneous administration of the compound.
The species named for assay [16] is Rattus norvegicus. Briefly: animal or person. Conditions: in Mus musculus, sc.
Assay [17] deals with Rattus norvegicus. The assay can be described thus: In vivo narcotic antagonist activity in rat after subcutaneous administration at 10 mg/kg & convulsions at 20 mg/kg. Conditions: sc.
Assay [18] has as its system Rattus norvegicus. Briefly: In vivo narcotic antagonist activity by rat phenazocine antagonism test through subcutaneous administration at 10 mg/kg.
Assay [19] deals with Rattus norvegicus. Briefly: Analgesic agonist activity by rat intracarotid bradykinin writhing test through subcutaneous administration. Conditions: sc.
For assay [20], the system named is Rattus norvegicus. The assay can be described thus: In vivo narcotic antagonist activity by rat phenazocine antagonism test through oral administration.

Turning to `CCNc1ccc2c(c1)N1CCN(CC3CC3)C(C2)C1.Cl` (stereo not given), the AD50 in assay [1] is 4.4 mg/kg. The Inhibition in assay [2] is given as 17%.
In turn, `Nc1ccc2c(c1)N1CCN(CC3CC3)[C@@H](C2)C1` had an inhibition in vivo at 75 mg/kg in [3] of 67%. Moreover, the inhibition in vivo at 80 mg/kg in assay [4] amounted to 25%. The ED50 in assay [5] was found to be 40 mg/kg.
On to `Nc1ccc2c(c1)N1CCN(CC3CC3)C(C2)C1` (stereo not given), for which the AD50 amounted to 13 mg/kg in [6]; 3.5 mg/kg in assay [8]; 8.6 mg/kg in assay [9]; 1.6 mg/kg in [1]; 4.8 mg/kg in [12]; 3.3 mg/kg in assay [14]. Also, the ED50 stood at 1.8 mg/kg in assay [7], 5.7 mg/kg in assay [10], 1 mg/kg in [11] and 1 mg/kg in assay [13].
In turn, `C=CCN1CCN2CC1Cc1ccc(N)cc12.CCS(=O)(=O)O` (stereo not given) gave an AD50 in [15] of 1.6 mg/kg.
Turning to `CCS(=O)(=O)O.c1ccc2c(c1)CC1CN2CCN1CC1CC1` (stereo not given), the AD50 in [15] amounted to 34 mg/kg. Moreover, the 50% effect level in assay [13] (ED50) was put at a dose of 1 mg/kg.
Take `CN1CC[C@]23c4c5ccc(O)c4O[C@H]2[C@@H](O)C=C[C@H]3[C@H]1C5.CN1CC[C@]23c4c5ccc(O)c4O[C@H]2[C@@H](O)C=C[C@H]3[C@H]1C5.O=S(=O)(O)O`: in [16], the ED50 worked out at 0.21 mg/kg.
For `CCCCNc1ccc2c(c1)N1CCN(CC3CC3)C(C2)C1` (stereo not given), the 50% effect level in assay [17] (ED50) was put at a dose of 1 mg/kg. This molecule had an AD50 in assay [18] of 1 mg/kg.
For the molecule `Oc1ccc2c(c1)N1CCN(CC3CC3)C(C2)C1` (stereo not given), the figures for the ED50 in [19] and in assay [5] were 37 mg/kg and 10 mg/kg, respectively. In addition, the figures for the AD50 in assay [1] and in assay [20] were 0.02 mg/kg and 3.2 mg/kg, respectively.
For the molecule `Nc1ccc2c(c1)N1CCN(CC3CC3)[C@H](C2)C1`, in assay [15], the AD50 is 0.31 mg/kg. In addition, in assay [5], the median effective dose (ED50) stood at 1 mg/kg.
With `C=CCN1CC[C@]23c4c5ccc(O)c4O[C@H]2[C@@H](O)C=C[C@H]3[C@H]1C5.Cl` [NALORPHINE HYDROCHLORIDE], the AD50 in assay [15] turned out to be 0.032 mg/kg. Further, the figures for the ED50 in assay [19] and in assay [16] were 0.24 mg/kg and 2.8 mg/kg, respectively.
